Reference: patent US9505727B2 (THE JOHNS HOPKINS UNIVERSITY, priority 2013, dated 2016)

Assays:
hNav1.1 = molecular target: T1, hNav1.1 (Homo sapiens, UniProt P35498); experiment: Two-electrode voltage-clamp of hNav1.1 (+β1) in Xenopus oocytes; assay type: cell-based; details: for Effect on hNav1.1 opening (G/Gmax), in words / Effect on hNav1.1 steady-state inactivation, in words / Effect on hNav1.1 persistent current / Depolarizing shift in hNav1.1 channel activation voltage: 100 μM; for Effect on hNav1.1 opening (G/Gmax), in words / Depolarizing shift in hNav1.1 channel activation voltage: versus DMSO; for Inactivation (V1/2) hNav1.1 / Activation (V1/2) hNav1.1: 100 μM drug; for Inactivation (V1/2) hNav1.1: steady-state inactivation; for Activation (V1/2) hNav1.1: ≤1% DMSO, oocytes incubated at least one hour; for Effect on hNav1.1 persistent current: end of 50 ms test pulse
T1 construct: host or cells: Xenopus oocytes (cRNA injection)

hNav1.2 = molecular target: T2, hNav1.2 (Homo sapiens, UniProt Q99250); experiment: Two-electrode voltage-clamp of hNav1.2 (+β1) in Xenopus oocytes; assay type: cell-based; details: for Effect on hNav1.2 opening/gating, in words: 100 μM, versus DMSO; for Inactivation (V1/2) hNav1.2 / Activation (V1/2) hNav1.2: 100 μM drug; for Inactivation (V1/2) hNav1.2: steady-state inactivation; for Activation (V1/2) hNav1.2: ≤1% DMSO
T2 construct: host or cells: Xenopus oocytes (cRNA injection)

hNav1.3 = molecular target: T3, hNav1.3 (Homo sapiens, UniProt Q9NY46); experiment: Two-electrode voltage-clamp of hNav1.3 (+β1) in Xenopus oocytes; assay type: cell-based; details: for Effect on hNav1.3 opening/gating, in words: 100 μM, versus DMSO; for Inactivation (V1/2) hNav1.3 / Activation (V1/2) hNav1.3: 100 μM drug; for Inactivation (V1/2) hNav1.3: steady-state inactivation; for Activation (V1/2) hNav1.3: ≤1% DMSO
T3 construct: host or cells: Xenopus oocytes (cRNA injection)

hNav1.6 = molecular target: T4, hNav1.6 (Homo sapiens, UniProt Q9UQD0); experiment: Two-electrode voltage-clamp of hNav1.6 (+β1) in Xenopus oocytes; assay type: cell-based; details: for Inactivation (V1/2) hNav1.6 / Activation (V1/2) hNav1.6: 100 μM drug; for Inactivation (V1/2) hNav1.6: steady-state inactivation; for Activation (V1/2) hNav1.6: ≤1% DMSO
T4 construct: host or cells: Xenopus oocytes (cRNA injection)

α1/β2/γ2 GABAA receptor = molecular target: T5, α1/β2/γ2 GABAA receptor (Homo sapiens, UniProt P14867+P18507+P47870); experiment: GABAA receptor activation in oocytes held at −70 mV; assay type: cell-based
T5 construct: expressed in transfected cells; host or cells: oocytes

[1] = test system: picrotoxin-induced seizures in male Crl:CF1 mice; experiment: Picrotoxin seizure induction; assay type: in vivo, mouse; details: 75 mg/kg ip
Procedure: (§1) Animal husbandry and drug administration. Male Crl:CF1 mice (10-12 weeks old, Charles River) were housed under a 12 hour light-dark cycle with free access to food and water and all experiments were carried out between 10 am and 4 pm. 1-[phenyl-methyl]-1H-1,2,3-triazole-4-carboxamide-5-methyl (Compound B) (Sigma Aldrich) was suspended in a 40% solution of cyclodextrin (Sigma Aldrich) in sterile saline (0.9%) and 15 minutes prior to each seizure induction paradigm, 75 mg/kg of compound B was administered via intraperitoneal injection (ip) injection. Vehicle treated animals were similarly administrated 40% cyclodextrin and served as the controls for each experiment. The Emory University Institutional Animal Care and Use Committee approved all experimental protocols involving mice.
Seizure induction paradigms and analyses. Picrotoxin seizure induction—15 minutes prior to i.p. injection of picrotoxin (10 mg/kg, Sigma Aldrich), mice were administered vehicle or compound B (n=12 per group). Latencies to the first myoclonic jerk, forelimb clonus, and generalized tonic-clonic seizure were compared between compound B and vehicle-treated mice. The myoclonic jerk is characterized by a sudden jerk of the upper body whereas forelimb clonus involves rapid movement of the forelimbs for at least 5 s. Finally, the generalized tonic-clonic seizure involves the loss of postural control with rapid movement of the limbs for at least 5 s.
Statistical analysis. A Student's t-test was used to identify statistically significant differences in latencies between vehicle- and compound B-treated groups for each seizure phenotype following administration of flurothyl and picrotoxin. […] All data are presented as the mean±s.e.m.; p values <0.05 were considered significant.

[2] = test system: flurothyl-induced seizures in male Crl:CF1 mice; experiment: Flurothyl seizure induction; assay type: in vivo, mouse; details: 75 mg/kg ip, p=0.6
Procedure: as §1
Flurothyl Seizure induction. Latencies to flurothyl-induced seizures were determined as previously described (Neurobiol Dis 49C, 211-220 (2012)). Briefly, flurothyl (2,2,2-trifluroethylether; Sigma Aldrich) was dispensed at a rate of 20 μl/minute into a Plexiglas chamber and latencies to three behavioral phenotypes were compared between vehicle-treated and compound B-treated (75 mg/kg) mice (n=12 per group): 1) the first myoclonic jerk, 2) a generalized tonic-clonic seizure, and 3) a generalized tonic-clonic seizure with tonic extension. […]

[3] = test system: 6 Hz psychomotor seizures in male Crl:CF1 mice; experiment: 6 Hz psychomotor seizure induction; assay type: in vivo, mouse; details: 17 mA
Procedure: as §1
6 Hz psychomotor seizure induction. Topical anesthetic (0.5% tetracaine hydrochloride ophthalmic solution) was applied to the cornea 30 minutes before testing. Fifteen minutes prior to seizure induction, mice were administrated vehicle or compound B (n=12 per group). Each mouse was manually restrained and corneal stimulation (0.2 ms pulse, 6 Hz, 3 s) was performed at a current intensity of 17 mA (ECT Unit 57800; Ugo Basile, Comerio Italy). […]

Nav1.7 = Nav1.7 (Homo sapiens, UniProt Q15858); details: reported by other researchers; cited from earlier work
Sequence of Nav1.7 (Q15858 whole entry): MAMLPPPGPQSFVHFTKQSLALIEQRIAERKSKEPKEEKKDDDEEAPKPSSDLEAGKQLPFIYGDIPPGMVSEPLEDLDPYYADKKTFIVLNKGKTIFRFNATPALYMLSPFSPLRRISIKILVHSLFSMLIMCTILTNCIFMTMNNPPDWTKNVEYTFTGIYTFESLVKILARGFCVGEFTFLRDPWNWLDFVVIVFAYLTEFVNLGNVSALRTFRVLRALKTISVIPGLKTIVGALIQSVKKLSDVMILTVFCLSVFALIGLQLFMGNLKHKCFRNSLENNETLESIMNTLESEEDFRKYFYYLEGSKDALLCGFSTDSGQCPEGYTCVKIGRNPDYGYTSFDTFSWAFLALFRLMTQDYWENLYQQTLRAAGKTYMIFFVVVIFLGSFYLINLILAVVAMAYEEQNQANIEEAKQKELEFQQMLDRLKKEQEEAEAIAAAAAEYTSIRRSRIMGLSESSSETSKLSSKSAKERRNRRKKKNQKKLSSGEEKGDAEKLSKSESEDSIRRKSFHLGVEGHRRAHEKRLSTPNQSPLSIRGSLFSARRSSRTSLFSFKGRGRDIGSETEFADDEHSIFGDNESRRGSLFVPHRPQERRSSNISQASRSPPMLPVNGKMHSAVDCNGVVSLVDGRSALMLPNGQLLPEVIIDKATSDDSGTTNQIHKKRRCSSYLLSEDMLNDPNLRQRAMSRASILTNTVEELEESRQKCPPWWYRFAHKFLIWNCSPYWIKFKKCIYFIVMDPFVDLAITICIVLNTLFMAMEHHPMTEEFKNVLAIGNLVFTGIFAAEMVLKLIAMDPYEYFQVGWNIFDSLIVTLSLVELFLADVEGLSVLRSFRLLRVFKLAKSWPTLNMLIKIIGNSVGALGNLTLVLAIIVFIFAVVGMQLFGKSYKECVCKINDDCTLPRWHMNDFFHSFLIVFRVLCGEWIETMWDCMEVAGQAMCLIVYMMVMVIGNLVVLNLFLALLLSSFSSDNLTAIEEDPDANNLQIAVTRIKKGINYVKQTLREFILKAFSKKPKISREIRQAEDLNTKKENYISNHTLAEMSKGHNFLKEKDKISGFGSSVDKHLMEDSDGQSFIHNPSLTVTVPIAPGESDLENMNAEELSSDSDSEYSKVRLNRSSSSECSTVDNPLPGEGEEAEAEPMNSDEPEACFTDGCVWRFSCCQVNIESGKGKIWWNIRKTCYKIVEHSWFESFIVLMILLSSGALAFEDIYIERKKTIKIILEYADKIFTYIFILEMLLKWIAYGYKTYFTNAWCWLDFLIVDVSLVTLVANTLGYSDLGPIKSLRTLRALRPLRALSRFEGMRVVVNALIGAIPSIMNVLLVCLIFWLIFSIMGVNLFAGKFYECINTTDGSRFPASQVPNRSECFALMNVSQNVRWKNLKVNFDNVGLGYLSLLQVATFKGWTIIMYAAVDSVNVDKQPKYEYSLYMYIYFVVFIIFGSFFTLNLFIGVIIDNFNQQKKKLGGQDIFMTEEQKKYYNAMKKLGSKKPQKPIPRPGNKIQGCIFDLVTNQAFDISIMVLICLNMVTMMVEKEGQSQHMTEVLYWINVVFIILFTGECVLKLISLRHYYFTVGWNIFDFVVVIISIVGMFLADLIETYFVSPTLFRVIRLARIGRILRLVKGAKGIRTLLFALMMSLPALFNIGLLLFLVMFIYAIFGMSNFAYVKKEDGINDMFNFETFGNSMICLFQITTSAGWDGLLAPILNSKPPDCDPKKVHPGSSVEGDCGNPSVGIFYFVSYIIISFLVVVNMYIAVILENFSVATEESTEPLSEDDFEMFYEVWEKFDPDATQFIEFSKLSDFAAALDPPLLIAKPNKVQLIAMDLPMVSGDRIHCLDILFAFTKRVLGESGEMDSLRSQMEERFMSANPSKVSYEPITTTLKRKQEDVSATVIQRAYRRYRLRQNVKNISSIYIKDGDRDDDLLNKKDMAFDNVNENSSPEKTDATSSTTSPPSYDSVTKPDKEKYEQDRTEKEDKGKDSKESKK

T5 sequence (P14867 28-456): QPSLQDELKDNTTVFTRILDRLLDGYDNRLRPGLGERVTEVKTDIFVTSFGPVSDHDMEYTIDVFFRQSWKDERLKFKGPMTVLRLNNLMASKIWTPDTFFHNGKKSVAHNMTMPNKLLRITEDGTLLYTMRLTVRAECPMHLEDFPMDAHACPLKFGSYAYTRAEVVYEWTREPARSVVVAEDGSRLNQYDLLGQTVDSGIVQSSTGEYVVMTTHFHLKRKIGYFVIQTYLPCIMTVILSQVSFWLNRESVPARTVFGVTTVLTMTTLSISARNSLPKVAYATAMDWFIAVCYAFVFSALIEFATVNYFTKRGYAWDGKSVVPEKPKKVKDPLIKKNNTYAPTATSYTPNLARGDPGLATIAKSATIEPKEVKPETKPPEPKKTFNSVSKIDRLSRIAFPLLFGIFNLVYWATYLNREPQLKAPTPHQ
T5 sequence (P47870 25-512 limits assumed): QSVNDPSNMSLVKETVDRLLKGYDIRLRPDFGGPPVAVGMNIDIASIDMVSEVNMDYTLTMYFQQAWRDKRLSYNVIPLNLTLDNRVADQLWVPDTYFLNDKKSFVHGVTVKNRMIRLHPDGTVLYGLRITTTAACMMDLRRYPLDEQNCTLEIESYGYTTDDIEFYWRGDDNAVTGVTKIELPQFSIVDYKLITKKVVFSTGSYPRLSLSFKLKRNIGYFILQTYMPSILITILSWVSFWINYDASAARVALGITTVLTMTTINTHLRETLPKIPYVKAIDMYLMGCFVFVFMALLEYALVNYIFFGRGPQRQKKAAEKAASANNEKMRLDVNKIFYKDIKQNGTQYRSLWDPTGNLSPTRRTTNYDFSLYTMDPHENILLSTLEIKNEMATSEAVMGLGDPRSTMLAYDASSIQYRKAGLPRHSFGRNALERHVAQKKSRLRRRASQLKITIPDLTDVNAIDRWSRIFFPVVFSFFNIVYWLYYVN
T5 sequence (P18507 40-475): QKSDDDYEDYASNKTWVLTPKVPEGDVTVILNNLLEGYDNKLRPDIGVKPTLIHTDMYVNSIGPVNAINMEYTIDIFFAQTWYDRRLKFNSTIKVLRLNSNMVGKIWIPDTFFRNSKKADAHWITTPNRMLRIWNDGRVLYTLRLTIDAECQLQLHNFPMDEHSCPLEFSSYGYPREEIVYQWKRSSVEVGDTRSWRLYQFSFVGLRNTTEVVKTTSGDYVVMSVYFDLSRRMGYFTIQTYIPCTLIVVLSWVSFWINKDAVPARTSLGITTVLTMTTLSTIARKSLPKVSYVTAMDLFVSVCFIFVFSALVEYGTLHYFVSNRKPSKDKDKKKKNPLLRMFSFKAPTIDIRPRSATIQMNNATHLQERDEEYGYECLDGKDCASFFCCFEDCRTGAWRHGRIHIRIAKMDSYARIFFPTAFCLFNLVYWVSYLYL

Compound | Effect on hNav1.1 opening (G/Gmax), in words (hNav1.1) | Effect on hNav1.2 opening/gating, in words (hNav1.2) | Effect on hNav1.3 opening/gating, in words (hNav1.3) | Effect on hNav1.1 steady-state inactivation, in words (hNav1.1) | Inactivation (V1/2) hNav1.1 (hNav1.1) | Activation (V1/2) hNav1.1 (hNav1.1) | Effect on hNav1.1 persistent current (hNav1.1) | Effect on hNav1.6 opening/gating, in words (hNav1.6; 100 μM, versus DMSO) | other results
1-[(2,6-difluorophenyl)methyl]-1H-1,2,3-triazole-carboxymethyl-5-methyl [Compound L] | only slightly inhibits | not significant | not significant |  |  |  |  |  | Effect on hNav1.6 steady-state inactivation, in words (hNav1.6; 100 μM): dramatically affect
NC(=O)c1nnn(Cc2cccc(F)c2)c1N [Compound A, 1-[(3-fluorophenyl)methyl]-1H-1,2,3-Triazole-4-carboxamide-5-amine] | clearly inhibit |  |  | neither of these compounds influences | −50.5 ± 1.2 mV^ | −30.8 ± 1.0 mV** | neither of these compounds influences |  | 
Cc1c(C(N)=O)nnn1Cc1ccccc1 [Compound B, 1-[phenyl-methyl]-1H-1,2,3-Triazole-4-carboxamide-5-methyl] | clearly inhibit | unaltered | unaltered | neither of these compounds influences | −49.4 ± 0.3 mV^ | −27.4 ± 1.0 mV** | neither of these compounds influences | unaltered | Effect on hNav1.1 persistent current (hNav1.1; listed as compound B): do not affect; Depolarizing shift in hNav1.1 channel activation voltage (hNav1.1): ~+11 mV; Inactivation (V1/2) hNav1.2 (hNav1.2): −53.6 ± 1.2 mV; Activation (V1/2) hNav1.2 (hNav1.2): −23.6 ± 1.1 mV; Inactivation (V1/2) hNav1.3 (hNav1.3): −50.0 ± 0.8 mV; Activation (V1/2) hNav1.3 (hNav1.3): −25.8 ± 1.4 mV; Inactivation (V1/2) hNav1.6 (hNav1.6): −62.6 ± 0.7 mV; Activation (V1/2) hNav1.6 (hNav1.6): −23.8 ± 1.9 mV; Activation of α1/β2/γ2 GABAA receptor (α1/β2/γ2 GABAA receptor; 100 μM): do not activate; Frequency of behavioral seizures versus vehicle, picrotoxin [1]: no difference; Average latency to forelimb clonus (FC) versus vehicle, picrotoxin ([1]; p=0.3): no statistically significant differences; Average latency to first myoclonic jerk (MJ) versus vehicle, picrotoxin ([1]; p=0.4): no statistically significant differences; Average latency to MJ versus vehicle, flurothyl [2]: comparable; Seizure severity (modified Racine scale) versus vehicle, 6 Hz ([3]; 75 mg/kg ip): dramatically less severe; Reduction in the number of mice exhibiting seizures, 6 Hz ([3]; versus vehicle): 63%
OCc1cn(Cc2cccc(F)c2)nn1 [Compound C, 1-[(3-fluorophenyl)methyl]-1H-1,2,3-Triazole-4-hydroxymethyl] | no longer affects |  |  |  | −49.2 ± 0.6 mV | −38.4 ± 1.3 mV |  |  | 
NC(=O)c1nnn(Cc2ccc(F)cc2)c1N [Compound D, 1-[(4-fluorophenyl)methyl]-1H-1,2,3-Triazole-4-carboxamide-5-amine] | not significant |  |  |  | −49.8 ± 1.6 mV | −32.5 ± 2.3 mV |  |  | 
CCc1c(C(N)=O)nnn1Cc1ccccc1 [Compound F, 1-(phenylmethyl)-1H-1,2,3-triazole-4-carboxamide-5-ethyl] | inhibits hNav1.1 opening | not significant | not significant | does not influence |  |  | does not influence | not significant | Depolarizing shift in hNav1.1 channel activation voltage (hNav1.1): ~+12 mV
COC(=O)c1nnn(Cc2c(F)cccc2F)c1C [Compound L, 1-[(2,6-difluorophenyl)methyl]-1H-1,2,3-triazole-carboxymethyl-5-methyl] | much smaller compared to compound B |  |  |  |  |  |  |  | Shift of hNav1.6 steady-state inactivation / channel availability midpoint (hNav1.6; 100 μM, versus DMSO): ~−20 mV
NC(=O)c1cn(Cc2c(F)cccc2F)nn1 [Rufinamide, 1-[(2,6-difluorophenyl)methyl]-1H-1,2,3-Triazole-4-carboxamide, reference compound] | dramatic depolarizing shift | not inhibited | not inhibited | not influenced | −47.8 ± 1.6 mV | −30.6 ± 0.9 mV** | do not affect | not inhibited | Inactivation (V1/2) hNav1.2 (hNav1.2): −57.7 ± 0.5 mV; Activation (V1/2) hNav1.2 (hNav1.2): −29.5 ± 1.2 mV; Inactivation (V1/2) hNav1.3 (hNav1.3): −52.6 ± 1.6 mV; Activation (V1/2) hNav1.3 (hNav1.3): −24.5 ± 2.4 mV; Inactivation (V1/2) hNav1.6 (hNav1.6): −60.0 ± 0.7 mV**; Activation (V1/2) hNav1.6 (hNav1.6): −28.1 ± 0.8 mV; Activation of α1/β2/γ2 GABAA receptor (α1/β2/γ2 GABAA receptor; 100 μM): do not activate; Effect on Nav1.7 inactivated state (Nav1.7): stabilizes the inactivated state
NCc1cc(=O)[nH]o1 [muscimol] |  |  |  |  |  |  |  |  | Activation of α1/β2/γ2 GABAA receptor (α1/β2/γ2 GABAA receptor; 5 μM): activates
